Assay results: patent US20230092389A1, “UNIT DOSES, AEROSOLS, KITS, AND METHODS FOR TREATING HEART CONDITIONS BY PULMONARY ADMINISTRATION” (InCarda Therapeutics, Inc., priority 2017, published 2023)
Several values for one entry are separate records, joined by “and”; a condition that tells them apart may be missing. Identical values can stand only once.

Assays:
healthy volunteers [1] = details: in vivo
Excerpt: 3 cohorts of subjects, in total 34 healthy adult volunteers, were recruited for Part A study.
Part B was an open label non-randomized crossover in a cohort of 6 evaluable healthy adult volunteers.
Adverse events were monitored and recorded.

[2] = cited from earlier work
[3] = test system: pigs with induced atrial fibrillation; assay: ACh and burst-pacing induced AF duration, IT instillation, pigs (Example 5); format: in vivo, Yorkshire pigs; details: for AF duration, mean: n=3, no drug 11±0.6
Protocol: At one min after intrapericardial administration of ACh (1 ml of 100 mM), burst pacing was performed to initiate AF in the control cohort (FIG. 60). In the experimental cohort, after ACh and burst-pacing-induced AF, a stable period of 2 min of AF was allowed (FIG. 60). […] Table 12; FIG. 61).

[4] = test system: pigs with induced atrial fibrillation; assay: Cardioversion of induced AF by IT flecainide, intact porcine model (Example 6); format: in vivo, Yorkshire pigs
Protocol: After 30-min recovery, the alternate intervention was tested. Times for conversion to normal sinus rhythm were compared.

healthy volunteers [5] = assay: Phase 1 (FLE-001) pharmacodynamics, ECG intervals; format: in vivo, human; details: for magnitude of QRS prolongation: 1 min post-inhalation; for magnitude of QRS prolongation / maximal QRS interval prolongation: post-hoc population; for prolongation in PR interval duration: Cohort 3, 60 mg eTLD
Protocol: The ECG recordings included: 1) Continuous real-time ECG telemetry for observation of patient safety starting at 12 hours pre-dose and continuing for 12 hours post-dose, 2) 12-lead ECGs for immediate review by medical staff to ascertain the safety of the procedures and drug administration were recorded at pre-specified (or any time as needed) before dosing (pre-dose) and after dosing (post-dose), and 3) continuous 12-lead ECG (cECG, iCardiac Holter monitoring) was recorded for 24 hours, starting 1 hour prior to dosing and up to 24 hours post dosing.

[6] = IV 2 mg/Kg, n = 3, Mean ± SEM, package insert

Compound: O=C(NCC1CCCCN1)c1cc(OCC(F)(F)F)ccc1OCC(F)(F)F (stereo not shown) [flecainide]
- remaining study-drug related events (cough, dysphonia, dyspnoea, oral hypoesthesia, chest discomfort) (healthy volunteers [1]; human, po): occurred once in 1 subject each
- AEs occurring more frequently than with placebo (healthy volunteers [1]): oropharyngeal discomfort, shortness of breath (dyspnoea), cough and dry mouth
- dose dependence of incidence of AEs (healthy volunteers [1]): appears not to be dose-dependent
- intensity of TEAEs (healthy volunteers [1]): mild in intensity
- serious adverse events (healthy volunteers [1]): No serious adverse events were reported
- tolerability of inhalation (healthy volunteers [1]): well tolerated, and no subject interrupted the inhalation
- AUClast [2, 6]: 4211 ± 456 ng·h/mL
- Cmax [2, 6]: 1644 ± 534 ng/mL
- Tmax ([2]; IV 2 mg/Kg, n = 3, package insert): 10.0 min
- Dist. t1/2 ([2]; in vivo, iv, 2 mg/kg): 2.6 ± 0.7 min
- Elim. t1/2 ([2]; in vivo, iv, 2 mg/kg): 558 ± 6 min
- recurrence of AF after restoration of sinus rhythm ([3]; 30-min window of observation): no recurrence of AF occurred
- reduction in AF duration from the untreated condition ([3]; IT 1.5 mg/kg): 73%
- AF duration, mean ([3]; IT 1.5 mg/kg): 3 ± 0.2 min
- AF duration, mean ([3]; IT 1.5 mg/kg, listed as Flecainide): 3 min
- AF duration, individual pigs ([3]; IT 1.5 mg/kg, pigs 239, 236, 238, no drug 12, 10, 12): 3 min (2×) and 4 min
- reduction of AF duration ([4]; IT 0.75 mg/kg vs no-drug): 50%
- time to conversion of AF to normal sinus rhythm ([4]; IT 0.75 mg/kg, n=3, no-drug 16.2±0.9): 8.1 ± 1.0 min
- AF conversion in representative electrograms, time after IT flecainide ([4]; IT 1.5 mg/kg (FIG. 65)): 5 min
- shortening in AF duration ([4]; IT 1.5 mg/kg vs no drug): 72%
- time to conversion of AF to normal sinus rhythm (mean±SEM) ([4]; IT 1.5 mg/kg, n=5, no drug 12.3±1.9 min): 3.4 ± 0.3 min
- dominant frequency of AF ([4]; IT 0.75 and 1.5 mg/kg): reduced the dominant frequency of AF
- relation of AF duration to dose ([4]; IT 0.75 and 1.5 mg/kg): AF duration correlated with flecainide dose
- time for plasma concentration to reach levels required for conversion ([4]; IT 0.75 and 1.5 mg/kg (FIG. 66A)): ≤ 10 min
- MAP and ventricular rate after conversion ([4]; IT 1.5 or 0.75 mg/kg): restored MAP and ventricular rate to baseline values
- effectiveness in rapidly converting AF to normal sinus rhythm ([4]; IT 1.5 or 0.75 mg/kg): 100%
- magnitude of QRS prolongation (healthy volunteers [5]; 20 mg eTLD): 3.0 ms
- magnitude of QRS prolongation (healthy volunteers [5]; 40 mg eTLD): 8.2 ms
- magnitude of QRS prolongation (healthy volunteers [5]; 60 mg eTLD): 16 ms
- difference of QRS interval duration from pre-dose baseline (healthy volunteers [5]; 2 to 24 hours post-inhalation of 30 mg eTLD, baseline 78±2 msec): < 2 ms
- PR interval (healthy volunteers [5]; 8 and 24 hours post-IV infusion): fully returned to pre-drug baseline
- QRS interval duration (healthy volunteers [5]; 30 min after completion of inhalation, 20-60 mg eTLD): returned to near pre-dose levels
- PR interval longer than pre-drug baseline (healthy volunteers [5]; 2 hours and beyond post-oral IH flecainide): approximately 2 msec
- PR interval (healthy volunteers [5]; 2 hours and beyond post-oral IH flecainide, baseline 158.5 msec): 160 ms
- QRS interval duration longer than baseline (healthy volunteers [5]; 2 hours following IV infusion, baseline 78±2 msec): 12.5 ms
- PR interval longer than pre-drug baseline (healthy volunteers [5]; 2 hours post-IV infusion, baseline 161±3 msec): ~12 ms
- QRS interval duration longer than baseline (healthy volunteers [5]; 24 hours following IV infusion): ~7 ms
- mean ΔPR (healthy volunteers [5]; Cohort 1, 20 mg eTLD, 1 minute post-dosing): -6 ms
- mean ΔPR (healthy volunteers [5]; Cohort 1, 20 mg eTLD, 3 minutes post-dosing): -4.5 ms
- mean ΔPR (healthy volunteers [5]; Cohort 1, 20 mg eTLD, 10 minutes to 4 hours after dosing): smaller than −3.0 msec
- mean ΔQRS (healthy volunteers [5]; Cohort 1, 20 mg eTLD, between 1 and 3 minutes after end of inhalation): small increase
- QRS duration (healthy volunteers [5]; Cohort 2, 40 mg eTLD, between 1 and 3 minutes post-dosing): transient increase
- time of maximal increase in QRS interval duration (healthy volunteers [5]; Cohort 2, 40 mg eTLD, majority of subjects): 1 min
- prolongation in PR interval duration (healthy volunteers [5]; 1 to 5 min): ~5 ms
- prolongation in PR interval duration (healthy volunteers [5]; 10 and 15 minutes): up to 12 msec
- non-specific intraventricular conduction delay (healthy volunteers [5]; Cohort 5, IV infusion): 3 of 6 subjects
- maximal increase in QRS interval duration, mean (±SEM) (healthy volunteers [5]; Cohort 5, IV infusion 2 mg/kg): 34.2 ± 2.4 ms
- duration of QRS widening (healthy volunteers [5]; Cohort 5, inhalation): 15 to 30 min
- maximal increase in QRS interval duration, mean (±SEM) (healthy volunteers [5]; Cohort 5, inhalation 30 mg eTLD): 12.4 ± 2.6 ms
- duration of QRS widening (healthy volunteers [5]; Cohort 5, intravenous): > 60 min
- non-specific intraventricular conduction delay (healthy volunteers [5]; Cohort 5, oral inhalation eTLD 30 mg): not observed
- duration of intraventricular conduction delay (healthy volunteers [5]; IV 2 mg/kg, 10 min infusion (FIG. 34)): 5 to 10 min
- maximal PR interval prolongation (healthy volunteers [5]; IV infusion 2 mg/kg): 25 ms
- T-wave morphology (healthy volunteers [5]; IV infusion 2 mg/kg (FIG. 36)): T-wave notching
- lower plasma concentration by inhalation for QRS prolongation of magnitude achieved by IV (6.2/2.7) (healthy volunteers [5]; Part B): 2.3 fold
- maximal QRS interval prolongation (healthy volunteers [5]; eTLD 20 mg): 3.5±1.0
- smaller change in QRS interval duration, inhalation vs IV infusion (healthy volunteers [5]; eTLD 30 mg vs ~150 mg IV): 2.7 fold
- maximal QRS interval prolongation (healthy volunteers [5]; eTLD 40 mg): 10±1.5
- maximal QRS interval prolongation (healthy volunteers [5]; eTLD 60 mg): 16±1.4
- PR interval (healthy volunteers [5]; end of IV infusion 2 mg/kg, 164±1 msec 45 min prior): 187 ± 6 ms
- T-wave morphology (healthy volunteers [5]; inhalation 20, 30, 40 mg eTLD): No changes
- lower plasma level following inhalation at similar ΔQRS (healthy volunteers [5]; inhalation vs 5 min into IV infusion): 2.6 fold
- PR interval prolongation from start of inhalation (healthy volunteers [5]; inhaled 30 mg eTLD, 5 min after completion of inhalation): 12 ms
- changes of PR interval duration (healthy volunteers [5]; inhaled 20 or 40 mg eTLD): Minimal or no changes
- temporal relation between plasma concentration and ΔQRS (healthy volunteers [5]; non-steady state, IV and inhalation): changes in QRS interval duration lag those of the peripheral venous concentrations
- maximal PR interval prolongation (healthy volunteers [5]; oral inhalation 30 mg eTLD): 12 ms
- maximal decrease in QRS amplitude (average of several tracings) (healthy volunteers [5]; subject R222, 40 mg eTLD): ~480 μV
- maximal increase in QRS duration (average of several tracings) (healthy volunteers [5]; subject R222, 40 mg eTLD): ~9 ms
- increase in QRS duration (QRSd) (healthy volunteers [5]; subject R222, 40 mg eTLD, 1 minute post-dosing): 10 ms
- decrease in amplitude of the R-wave (QRSa) (healthy volunteers [5]; subject R222, 40 mg eTLD, 3 min post-dosing): 400 μV
